Series [1] can be described thus: In vivo plasma and liver concentrations, 20 mg/kg intraperitoneal. The following applies: female, C57BL/6J, mouse, ip. How it is done: All animal procedures were approved by the Sanford Burnham Prebys Medical Discovery Institute Institutional Animal Care and Use Committee and were performed according to the NIH guidelines for the Care and Use of Laboratory Animals. Adult female C57BL/6J mice were purchased from Jackson Laboratories and housed with free access to food and water on a 12 h light/dark cycle. Compounds were formulated in 5% DMSO, 10% Tween-80, and 85% H2O and injected intraperitoneally at 10 or 20 mg/kg. Blood samples were collected retro-orbitally at the indicated times and plasma was prepared by centrifugation. Livers were collected post mortem at the indicated times.
For quantification of compound, plasma samples were extracted with acetonitrile: water 4:1 with 0.1% formic acid containing indomethacin as an internal standard. Samples were centrifuged and the supernatants were diluted with acetonitrile: water and analyzed by LC-MS/MS using a Shimadzu Nexera X2 High-performance liquid chromatography (HPLC) (Shimadzu Scientific Instruments: Kyoto, Japan) coupled to an AB Sciex 6500 QTRAP (AB Sciex LLC: Toronto, Canada).
Adult female C57BL/6 mice (n=3/group) were intraperitoneally injected with vehicle or test compound (20 mg/kg), and blood samples and livers were collected at 30 min and 1 h post-injection, respectively. Plasma concentrations of all 13 compounds were >1.4 μM at 30 min after injection, and 10 compounds had liver concentrations >1.0 μM at 1 h after injection, as measured by LC-MS/MS, with particularly high plasma concentrations obtained with compounds 11 (15.9 μM), 16 (11.6 μM) and 105 (8.7 μM) (Table 5). To evaluate target engagement in vivo, the total and phosphorylated MOB1 levels in livers collected at 1 h post-injection was examined.
Tween 80 and water and were administered to mice by intraperitoneal injection. Blood samples and livers were collected at 30 min and 1 h post-dose, respectively. Plasma concentrations and relative pMOB1 levels were determined by LC-MS/MS and western blot analysis, respectively. (n=3).

The target in series [2] is T1, STK4 (Homo sapiens (Human), UniProt Q13043). Nature of the series: ADP-Glo kinase assay, STK4. The format is biochemical. Particulars: ADP-Glo, 50 μM ATP; read-out: STK4 IC50. Put shortly: (§1)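 ADP-Glo readout at 50 μM ATP with 50 ng full-length enzyme: STK4 on 300 μg/mL Axltide substrate, STK3 on 250 μg/mL myelin basic protein. Done as three independent runs in triplicate.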
(In ADP-Glo the light output rises with the ADP produced.)

A further series is described as follows: Kinetic solubility. The format is physicochemical. The source says:
Data is represented as an average of a single experiment preformed in duplicate. Atenolol was used as an internal standard.

The next series has as its target LRRK2 (Homo sapiens (Human), UniProt Q5S007). As to the kind of experiment: NanoBRET intracellular kinase assay, LRRK2. The format is cell-based. Particulars: transfected HEK293 cells, 2 h. On the procedure: Full-length STK3, STK4, and LRRK2 kinase was cloned in-frame with a C-terminal NanoLuc-fusion (Promega: Madison, WI, USA) and the plasmid was transfected into HEK293T cells using FuGENE HD (Promega, E2312). After 20 h, transfected cells were mixed with inhibitors and 50 nM NanoBRET Kinase Tracer K10 (Promega) and reseeded at a density of 2× 10^5 cells/mL in Opti-Minimal Essential Medium (MEM) without phenol red (Life Technologies; Carlsbad, CA, USA) in 384-well plates (Greiner 781-207; Kremsmunster, Austria). After 2 h at 37° C. in a 5% CO2 atmosphere, NanoBRET NanoGlo Substrate+Extra-cellular NanoLuc Inhibitor (Promega, N2540) was added, and filtered luminescence was measured on a PHERAstar plate reader (BMG Labtech; Ortenberg, Germany) equipped with a lumi-nescence filter pair (450 nm BP filter (donor) and 610 nm LP filter (acceptor)).
To confirm cellular potency for compounds described herein, the […] were used to detect engagement of STK3 and STK4 in live cells using the NanoBRET™ intracellular kinase assay, marking the first report of a NanoBRET assay for STK3 and STK4. This assay measured the apparent affinity of test compounds by competitive displacement of the NanoBRET™ tracer, reversibly bound to a NanoLuc® luciferase-kinase fusion in cells. To evaluate potential off-target activity of the inhibitors, the inhibition of LRRK2 in live cells by the STK3/4 inhibitors compounds described herein were measured. Cultured HEK293 cells were either transfected with NanoLuc®-STK3 fusion vector, NanoLuc®-STK4 fusion, or with NanoLuc®-LRRK2 vector for 24 h. A 50 nM tracer and these compounds were added to cells and incubated for 2 h. These compounds tested in the assays decreased the NanoBRET™ signal for both STK3 and STK4 at varying potencies and confirming cellular target engagement of STK3/4.
(In general: In BRET a luciferase serves as donor, and the signal depends on an acceptor being close.)

Series [3] has as its target T1, STK4. Nature of the series: NanoBRET intracellular kinase assay, STK4. Particulars: transfected HEK293 cells, 2 h. It counts as cell-based. On the procedure:
(§2) Full-length STK3, STK4, and LRRK2 kinase was cloned in-frame with a C-terminal NanoLuc-fusion (Promega: Madison, WI, USA) and the plasmid was transfected into HEK293T cells using FuGENE HD (Promega, E2312). […] After 2 h at 37° C. in a 5% CO2 atmosphere, NanoBRET NanoGlo Substrate+Extra-cellular NanoLuc Inhibitor (Promega, N2540) was added, and filtered luminescence was measured on a PHERAstar plate reader (BMG Labtech; Ortenberg, Germany) equipped with a lumi-nescence filter pair (450 nm BP filter (donor) and 610 nm LP filter (acceptor)).
(§3) This assay measured the apparent affinity of test compounds by competitive displacement of the NanoBRET™ tracer, reversibly bound to a NanoLuc® luciferase-kinase fusion in cells. To evaluate potential off-target activity of the inhibitors, the inhibition of LRRK2 in live cells by the STK3/4 inhibitors compounds described herein were measured. […] A 50 nM tracer and these compounds were added to cells and incubated for 2 h.

Series [4] addresses T2, STK3 (Homo sapiens (Human), UniProt Q13188). Nature of the series: NanoBRET intracellular kinase assay, STK3. It counts as cell-based. The following applies: NanoBRET, transfected HEK293 cells, 2 h; read-out: STK3: IC50. How it is done:
as §2, §3

Series [5] has as its target T2, STK3. As to the kind of experiment: ADP-Glo kinase assay, STK3. It counts as biochemical. Particulars: ADP-Glo, 50 μM ATP; read-out: STK3 IC50. Put shortly:
as §1

Where [6] appears, read: FaSSGF, fassgf or other biorelevant, kinetic from dmso stock, FaSSGF, read-out: Solubility, FASSGF.
Where [7] appears, read: FaSSIF, kinetic from dmso stock, FaSSIF, read-out: Solubility, FaSSIF.
Where [8] appears, read: PBS pH 7.4, pH 7.4, aqueous buffer, kinetic from dmso stock, PBS pH 7.4, read-out: Solubility, Buffer (pH = 7.4).
[9] abbreviates: mice, 20 mg/kg intraperitoneal, 30 min post-dose, read-out: Plasma concentration.

Converted amounts (≈) assume the structure as drawn. Where two headings read alike, the source gives them in different places.

T2 sequence (Q13188 whole entry): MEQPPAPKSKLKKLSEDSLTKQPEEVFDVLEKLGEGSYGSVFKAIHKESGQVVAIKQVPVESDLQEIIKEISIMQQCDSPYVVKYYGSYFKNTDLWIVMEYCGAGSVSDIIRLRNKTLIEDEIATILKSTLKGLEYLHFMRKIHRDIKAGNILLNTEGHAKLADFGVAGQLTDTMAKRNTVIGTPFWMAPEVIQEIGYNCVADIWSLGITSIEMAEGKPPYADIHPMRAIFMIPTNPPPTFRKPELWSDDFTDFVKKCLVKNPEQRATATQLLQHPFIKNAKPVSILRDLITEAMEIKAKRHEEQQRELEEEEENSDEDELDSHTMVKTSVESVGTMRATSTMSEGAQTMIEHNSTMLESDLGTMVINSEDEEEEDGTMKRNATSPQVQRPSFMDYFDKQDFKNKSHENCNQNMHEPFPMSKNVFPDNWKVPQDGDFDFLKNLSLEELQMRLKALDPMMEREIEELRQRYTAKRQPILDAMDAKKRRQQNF
T1 sequence (Q13043 whole entry): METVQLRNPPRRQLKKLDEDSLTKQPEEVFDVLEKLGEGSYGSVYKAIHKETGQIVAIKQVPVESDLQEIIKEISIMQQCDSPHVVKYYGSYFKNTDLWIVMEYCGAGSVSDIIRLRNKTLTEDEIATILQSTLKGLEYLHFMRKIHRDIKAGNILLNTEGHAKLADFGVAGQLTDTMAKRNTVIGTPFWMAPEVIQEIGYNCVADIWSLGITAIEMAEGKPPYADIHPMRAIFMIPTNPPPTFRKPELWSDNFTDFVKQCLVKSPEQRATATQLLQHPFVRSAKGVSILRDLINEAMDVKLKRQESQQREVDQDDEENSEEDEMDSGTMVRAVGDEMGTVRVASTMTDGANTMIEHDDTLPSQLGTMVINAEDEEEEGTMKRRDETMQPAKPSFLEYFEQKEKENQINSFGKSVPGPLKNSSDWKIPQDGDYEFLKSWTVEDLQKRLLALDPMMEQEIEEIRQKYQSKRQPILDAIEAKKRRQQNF
LRRK2, sequence (Q5S007 whole entry, species assumed, the tested form may be a part): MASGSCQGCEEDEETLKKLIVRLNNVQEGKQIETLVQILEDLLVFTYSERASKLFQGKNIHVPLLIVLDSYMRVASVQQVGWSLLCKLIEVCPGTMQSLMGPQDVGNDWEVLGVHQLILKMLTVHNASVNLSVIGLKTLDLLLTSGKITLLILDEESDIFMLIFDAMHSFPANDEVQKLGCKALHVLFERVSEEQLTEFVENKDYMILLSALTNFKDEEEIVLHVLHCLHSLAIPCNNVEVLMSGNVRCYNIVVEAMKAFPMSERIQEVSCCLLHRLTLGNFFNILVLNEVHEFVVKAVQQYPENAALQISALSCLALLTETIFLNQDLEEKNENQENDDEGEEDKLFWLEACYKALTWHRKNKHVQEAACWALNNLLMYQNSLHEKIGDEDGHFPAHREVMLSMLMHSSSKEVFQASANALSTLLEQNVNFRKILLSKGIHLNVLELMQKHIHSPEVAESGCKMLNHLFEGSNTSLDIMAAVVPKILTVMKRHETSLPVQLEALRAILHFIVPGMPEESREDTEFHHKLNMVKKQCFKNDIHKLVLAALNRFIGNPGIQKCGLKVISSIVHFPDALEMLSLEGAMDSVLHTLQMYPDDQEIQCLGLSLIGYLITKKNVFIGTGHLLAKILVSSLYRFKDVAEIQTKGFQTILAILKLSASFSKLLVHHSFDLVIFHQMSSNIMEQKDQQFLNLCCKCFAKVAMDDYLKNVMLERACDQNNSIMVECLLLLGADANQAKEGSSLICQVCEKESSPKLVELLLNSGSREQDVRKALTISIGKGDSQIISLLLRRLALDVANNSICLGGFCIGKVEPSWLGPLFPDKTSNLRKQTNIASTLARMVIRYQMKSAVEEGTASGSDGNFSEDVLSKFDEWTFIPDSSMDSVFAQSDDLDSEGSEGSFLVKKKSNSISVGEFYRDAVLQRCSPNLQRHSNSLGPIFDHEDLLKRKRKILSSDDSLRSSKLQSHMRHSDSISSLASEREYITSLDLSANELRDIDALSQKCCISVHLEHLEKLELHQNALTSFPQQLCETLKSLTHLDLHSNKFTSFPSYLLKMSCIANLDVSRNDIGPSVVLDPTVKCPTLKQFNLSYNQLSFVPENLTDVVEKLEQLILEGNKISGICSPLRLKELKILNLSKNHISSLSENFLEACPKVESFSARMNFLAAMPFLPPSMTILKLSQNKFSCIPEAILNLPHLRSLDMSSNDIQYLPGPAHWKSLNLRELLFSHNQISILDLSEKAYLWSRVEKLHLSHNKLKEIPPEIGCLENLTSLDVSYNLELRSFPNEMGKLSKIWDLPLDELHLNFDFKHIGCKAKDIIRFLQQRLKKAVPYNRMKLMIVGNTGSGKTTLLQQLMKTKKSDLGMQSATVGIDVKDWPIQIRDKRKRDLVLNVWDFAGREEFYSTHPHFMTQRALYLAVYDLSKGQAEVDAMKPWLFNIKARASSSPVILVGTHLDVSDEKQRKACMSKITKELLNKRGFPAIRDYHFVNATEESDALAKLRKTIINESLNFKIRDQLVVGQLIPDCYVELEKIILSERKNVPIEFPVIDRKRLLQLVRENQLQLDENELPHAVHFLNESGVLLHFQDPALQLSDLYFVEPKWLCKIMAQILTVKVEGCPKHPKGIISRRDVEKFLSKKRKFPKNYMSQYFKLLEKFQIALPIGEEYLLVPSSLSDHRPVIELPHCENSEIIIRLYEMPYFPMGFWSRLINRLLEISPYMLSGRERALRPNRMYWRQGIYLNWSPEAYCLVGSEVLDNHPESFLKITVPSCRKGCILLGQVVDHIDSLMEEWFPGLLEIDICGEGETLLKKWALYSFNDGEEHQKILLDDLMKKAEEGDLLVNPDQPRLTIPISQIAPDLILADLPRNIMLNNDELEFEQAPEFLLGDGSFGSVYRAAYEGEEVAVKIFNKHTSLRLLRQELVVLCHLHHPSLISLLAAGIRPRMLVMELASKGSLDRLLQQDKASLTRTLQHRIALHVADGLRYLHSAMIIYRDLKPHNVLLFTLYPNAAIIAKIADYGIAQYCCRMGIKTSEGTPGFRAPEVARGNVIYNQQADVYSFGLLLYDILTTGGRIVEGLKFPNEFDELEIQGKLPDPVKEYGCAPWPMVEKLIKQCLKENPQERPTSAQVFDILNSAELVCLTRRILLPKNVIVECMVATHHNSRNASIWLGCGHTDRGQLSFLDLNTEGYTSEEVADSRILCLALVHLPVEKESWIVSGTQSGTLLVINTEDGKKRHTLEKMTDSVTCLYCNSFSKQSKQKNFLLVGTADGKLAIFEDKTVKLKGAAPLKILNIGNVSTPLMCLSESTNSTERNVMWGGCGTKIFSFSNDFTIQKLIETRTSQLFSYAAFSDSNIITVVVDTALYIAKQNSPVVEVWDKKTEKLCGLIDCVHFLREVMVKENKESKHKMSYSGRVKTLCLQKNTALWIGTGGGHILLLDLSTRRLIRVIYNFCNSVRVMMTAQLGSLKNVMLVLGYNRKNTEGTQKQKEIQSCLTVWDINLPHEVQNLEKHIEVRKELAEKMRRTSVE

In general, IC50 refers to the point on the concentration scale where inhibition reaches its midpoint. Broadly, the solubility is how much of the substance goes into solution per volume. In series [1] (20 mg/kg), `Clc1cccc(-c2c[nH]c3ncnc(N4CCOCC4)c23)c1` [Compound 6, 4-(5-(3-Chlorophenyl)-7H-pyrrolo[2,3-d]pyrimidin-4-yl)morpholine] registered a concentration at 30 min of 6.9 µM. Moreover, the concentration at 1 h in series [1] (20 mg/kg) was determined as 15.3 µM. The IC50 at STK4 [2] was < 1 µM; against LRRK2, ≤ 1 µM; at STK4 [3], < 1 µM. Also, the solubility was found to be 353 µM (≈ 111 µg/mL) in “Kinetic solubility” (setting [6]), 35.7 µM (≈ 11.2 µg/mL) in “Kinetic solubility” (setting [7]) and 9.2 µM (≈ 2.9 µg/mL) in “Kinetic solubility” (setting [8]).
Compound `NC(=O)c1cccc(-c2c[nH]c3ncnc(N4CCOCC4)c23)c1` [Compound 11, 3-(4-Morpholino-7H-pyrrolo[2,3-d]pyrimidin-5-yl)benzamide] showed a concentration at 1 h in series [1] (20 mg/kg) of 23.2 µM. Further, the concentration at 30 min in series [1] (setting [9]) amounted to 15.9 µM. In addition, the values for the IC50 at STK3 [4], at STK3 [5] and on LRRK2 were < 1 µM, < 1 µM and ≥ 2 µM, respectively. Also, the values for the solubility in the series “Kinetic solubility” (setting [6]), in the series “Kinetic solubility” (setting [7]) and in the series “Kinetic solubility” (setting [8]) were 430 µM (≈ 139 µg/mL), 136 µM (≈ 43.8 µg/mL) and 145 µM (≈ 46.9 µg/mL), respectively.
Take `OC1CCN(c2ncnc3[nH]cc(-c4cccc(Cl)c4)c23)CC1` [Compound 16, 1-(5-(3-Chlorophenyl)-7H-pyrrolo[2,3-d]pyrimidin-4-yl)piperidin-4-ol]: the concentration at 1 h in series [1] (20 mg/kg) amounted to 5.9 µM. Moreover, the concentration at 30 min in series [1] (setting [9]) is 11.6 µM. The IC50 at STK3 [4], at STK3 [5], on STK4 [2] and against STK4 [3] was < 1 µM throughout. The solubility was determined as 352 µM (≈ 116 µg/mL) in “Kinetic solubility” (setting [6]); 294 µM (≈ 96.5 µg/mL) in the series “Kinetic solubility” (setting [7]); 189 µM (≈ 62.1 µg/mL) in “Kinetic solubility” (setting [8]); 188.5 µM (≈ 62 µg/mL) in the series “Kinetic solubility” (PBS pH 7.4, read-out: Solubility, Buffer (pH = 7.4)). Moreover, the “LRRK2: IC50” value on LRRK2 was “B (B: IC50 is >2000 nM and <1000 nM)”.
For the compound `Clc1cccc(-c2c[nH]c3nccc(N4CCOCC4)c23)c1` [Compound 23, 4-(3-(3-chlorophenyl)-1H-pyrrolo[2,3-b]pyridin-4-yl)morpholine], the concentration at 30 min in series [1] (20 mg/kg) was found to be 7.1 µM. For the same compound, the concentration at 1 h in series [1] (20 mg/kg) turned out to be 16.6 µM. The IC50 at STK3 [4] is < 1 µM; on STK3 [5], < 1 µM; on STK4 [2], < 1 µM; on LRRK2, ≤ 1 µM; on STK4 [3] it was < 1 µM. Further, the figures for the solubility in “Kinetic solubility” (setting [6]), in the series “Kinetic solubility” (setting [7]) and in “Kinetic solubility” (setting [8]) were 372 µM (≈ 117 µg/mL), 7 µM (≈ 2.2 µg/mL) and < 0.6 µM, respectively.
Consider `CC(=O)NC1CCN(c2ncnc3[nH]cc(-c4cccc(Cl)c4)c23)CC1` [Compound 105, N-(1-(5-(3-chlorophenyl)-7H-pyrrolo[2,3-d]pyrimidin-4-yl)piperidin-4-yl)acetamide], for which, in series [1] (20 mg/kg), the concentration at 30 min came to 8.7 µM. In series [1] (20 mg/kg), the concentration at 1 h worked out at 4.6 µM. For the same compound, the IC50 at STK3 [4], at STK3 [5], on STK4 [2] and against STK4 [3] was < 1 µM each time. Besides, on LRRK2, the “LRRK2: IC50” value is “B (B: IC50 is >2000 nM and <1000 nM)”.

These data come from patent US20250051337A1 (priority 2021, published 2025).
